In patent publication US8829034B2, “Compounds which modulate the CB2 receptor” (Boehringer Ingerlheim International GmbH, priority 2006, dated 2014):
Read-outs that look alike come from different tables or passages of the source.

Target: T1, human CB2R (Homo sapiens, UniProt P34972)
T1 construct: host or cells: CHO cells
Experiment: CB2R mediated modulation of cAMP synthesis
Format: cell-based
Conditions: for agonistic activity: found through the use of the above described assays
Procedure, shortened: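 CHO cells expressing human CB2R were treated with compound for 30 min at 37 °C in buffer containing 1 mM IBMX, 0.25% BSA and 10 uM forskolin. cAMP was measured after lysis. EC50 was taken as 50% inhibition of forskolin-stimulated cAMP, with 100% defined by 1 uM CP55940, using a four-parameter logistic fit.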

T1 sequence (P34972 whole entry): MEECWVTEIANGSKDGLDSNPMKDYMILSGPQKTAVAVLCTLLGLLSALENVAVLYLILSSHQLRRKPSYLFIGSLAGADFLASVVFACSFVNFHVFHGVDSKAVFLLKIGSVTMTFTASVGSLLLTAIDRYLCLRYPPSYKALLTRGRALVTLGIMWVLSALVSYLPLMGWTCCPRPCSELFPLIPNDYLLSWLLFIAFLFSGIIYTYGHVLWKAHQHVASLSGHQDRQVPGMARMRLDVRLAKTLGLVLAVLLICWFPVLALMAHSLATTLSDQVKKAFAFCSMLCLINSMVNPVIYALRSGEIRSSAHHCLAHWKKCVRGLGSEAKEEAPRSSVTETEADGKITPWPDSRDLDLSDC

For CC(C)(C)c1nnc(NC(=O)C(C)(C)S(=O)(=O)CC2CCOCC2)s1 [N-(5-tert-Butyl-[1,3,4]thiadiazol-2-yl)-2-methyl-2-(tetrahydro-pyran-4-ylmethanesulfonyl)-propionamide], the agonistic activity was “agonistic activity”.

CC(C)(C)c1cc(NC(=O)C(C)(C)S(=O)(=O)CC2CCN(S(C)(=O)=O)C2)no1 (centres unmarked) [N-(5-tert-Butyl-isoxazol-3-yl)-2-(1-methanesulfonyl-pyrrolidin-3-ylmethanesulfonyl)-2-methyl-propionamide] was tested, and the EC50 was 0.0441 µM and the agonistic activity was “agonistic activity”.

In the case of CC(C)(C)C(=O)CS(=O)(=O)C(C)(C)C(=O)Nc1cc(C(C)(C)C)on1 [N-(5-tert-Butyl-isoxazol-3-yl)-2-(3,3-dimethyl-2-oxo-butane-1-sulfonyl)-2-methyl-propionamide], the EC50 is reported as 0.0398 µM and the agonistic activity is reported as “agonistic activity”.

For CC(C)(C)c1cc(NC(=O)C(C)(C)S(=O)(=O)Cc2ccc(Cl)cc2)no1 [N-(5-tert-Butyl-isoxazol-3-yl)-2-(4-chloro-phenylmethanesulfonyl)-2-methyl-propionamide], the EC50 was 0.0166 µM and the agonistic activity was “agonistic activity”.

CC(C)(C)c1cc(NC(=O)C(C)(C)S(=O)(=O)CC#N)no1 [N-(5-tert-Butyl-isoxazol-3-yl)-2-cyanomethanesulfonyl-2-methyl-propionamide] was tested, and the agonistic activity was “agonistic activity”.

In the case of CC(C)(C)c1cc(NC(=O)C(C)(C)S(=O)(=O)CC2CCC2)no1 [N-(5-tert-Butyl-isoxazol-3-yl)-2-cyclobutylmethanesulfonyl-2-methyl-propionamide], the EC50 is reported as 0.0034 µM and the agonistic activity is reported as “agonistic activity”.

CC(C)(C)c1cc(NC(=O)C(C)(C)S(=O)(=O)C2CCCCCC2)no1 [N-(5-tert-Butyl-isoxazol-3-yl)-2-cycloheptanesulfonyl-2-methyl-propionamide] was tested, and the EC50 was 0.0001 µM and the agonistic activity was “agonistic activity”.

In the case of CC(C)(C)c1cc(NC(=O)C(C)(C)S(=O)(=O)C2CCCCC2)no1 [N-(5-tert-Butyl-isoxazol-3-yl)-2-cyclohexanesulfonyl-2-methyl-propionamide], the EC50 is reported as 0.0002 µM and the agonistic activity is reported as “agonistic activity”.

In the case of CC(C)(C)c1cc(NC(=O)C(C)(C)S(=O)(=O)CC2CCCCC2)no1 [N-(5-tert-Butyl-isoxazol-3-yl)-2-cyclohexylmethanesulfonyl-2-methyl-propionamide], the EC50 is reported as 0.0006 µM and the agonistic activity is reported as “agonistic activity”.

CC(C)(C)c1cc(NC(=O)C(C)(C)S(=O)(=O)C2CCCC2)no1 [N-(5-tert-Butyl-isoxazol-3-yl)-2-cyclopentanesulfonyl-2-methyl-propionamide] was tested, and the EC50 was 0.0024 µM and the agonistic activity was “agonistic activity”.

CC(C)(C)c1cc(NC(=O)C(C)(C)S(=O)(=O)C2CC2)no1 [N-(5-tert-Butyl-isoxazol-3-yl)-2-cyclopropanesulfonyl-2-methyl-propionamide] was tested, and the agonistic activity was “agonistic activity”.

In the case of CC(C)(C)c1cc(NC(=O)C(C)(C)S(=O)(=O)CC2CC2)no1 [N-(5-tert-Butyl-isoxazol-3-yl)-2-cyclopropylmethanesulfonyl-2-methyl-propionamide], the EC50 is reported as 0.0343 µM and the agonistic activity is reported as “agonistic activity”.

CCS(=O)(=O)C(C)(C)C(=O)Nc1cc(C(C)(C)C)on1 [N-(5-tert-Butyl-isoxazol-3-yl)-2-ethanesulfonyl-2-methyl-propionamide] was tested, and the agonistic activity was “agonistic activity”.

With CC(C)(C)c1cc(NC(=O)C(C)(C)S(C)(=O)=O)no1 [N-(5-tert-Butyl-isoxazol-3-yl)-2-methanesulfonyl-2-methyl-propionamide] the agonistic activity was “agonistic activity”.

CC(C)(C)c1cc(NC(=O)C(C)(C)S(=O)(=O)CC(F)(F)F)no1 [N-(5-tert-Butyl-isoxazol-3-yl)-2-methyl-2-(2,2,2-trifluoro-ethanesulfonyl)-propionamide] was tested, and the agonistic activity was “agonistic activity”.

With CC(C)CS(=O)(=O)C(C)(C)C(=O)Nc1cc(C(C)(C)C)on1 [N-(5-tert-Butyl-isoxazol-3-yl)-2-methyl-2-(2-methyl-propane-1-sulfonyl)-propionamide] the EC50 was 0.0446 µM and the agonistic activity was “agonistic activity”.

In the case of CC(C)(C)c1cc(NC(=O)C(C)(C)S(=O)(=O)C(C)(C)C)no1 [N-(5-tert-Butyl-isoxazol-3-yl)-2-methyl-2-(2-methyl-propane-2-sulfonyl)-propionamide], the agonistic activity is reported as “agonistic activity”.

For CC(C)CCS(=O)(=O)C(C)(C)C(=O)Nc1cc(C(C)(C)C)on1 [N-(5-tert-Butyl-isoxazol-3-yl)-2-methyl-2-(3-methyl-butane-1-sulfonyl)-propionamide], the EC50 was 0.0002 µM and the agonistic activity was “agonistic activity”.

CC(C)(C)c1cc(NC(=O)C(C)(C)S(=O)(=O)CCCc2ccccc2)no1 [N-(5-tert-Butyl-isoxazol-3-yl)-2-methyl-2-(3-phenyl-propane-1-sulfonyl)-propionamide] was tested, and the agonistic activity was “agonistic activity”.

For CC(C)(C)c1cc(NC(=O)C(C)(C)S(=O)(=O)C2(C)CCOCC2)no1 [N-(5-tert-Butyl-isoxazol-3-yl)-2-methyl-2-(4-methyl-tetrahydro-pyran-4-sulfonyl)-propionamide], the EC50 was 0.0094 µM and the agonistic activity was “agonistic activity”.

For CC(C)(C)c1cc(NC(=O)C(C)(C)S(=O)(=O)CC2CCNCC2)no1 [N-(5-tert-Butyl-isoxazol-3-yl)-2-methyl-2-(piperidin-4-ylmethanesulfonyl)-propionamide], the agonistic activity was “agonistic activity”.

For CCCS(=O)(=O)C(C)(C)C(=O)Nc1cc(C(C)(C)C)on1 [N-(5-tert-Butyl-isoxazol-3-yl)-2-methyl-2-(propane-1-sulfonyl)-propionamide], the EC50 was 0.0619 µM and the agonistic activity was “agonistic activity”.

CC(C)S(=O)(=O)C(C)(C)C(=O)Nc1cc(C(C)(C)C)on1 [N-(5-tert-Butyl-isoxazol-3-yl)-2-methyl-2-(propane-2-sulfonyl)-propionamide] was tested, and the agonistic activity was “agonistic activity”.

CC(C)(C)c1cc(NC(=O)C(C)(C)S(=O)(=O)CC2CCCO2)no1 (centres unmarked) [N-(5-tert-Butyl-isoxazol-3-yl)-2-methyl-2-(tetrahydro-furan-2-ylmethanesulfonyl)-propionamide] was tested, and the EC50 was 0.0705 µM and the agonistic activity was “agonistic activity”.

CC(C)(C)c1cc(NC(=O)C(C)(C)S(=O)(=O)CC2CCCCO2)no1 (centres unmarked) [N-(5-tert-Butyl-isoxazol-3-yl)-2-methyl-2-(tetrahydro-pyran-2-ylmethanesulfonyl)-propionamide] was tested, and the EC50 was 0.0002 µM and the agonistic activity was “agonistic activity”.

With CC(C)(C)c1cc(NC(=O)C(C)(C)S(=O)(=O)C2CCOCC2)no1 [N-(5-tert-Butyl-isoxazol-3-yl)-2-methyl-2-(tetrahydro-pyran-4-sulfonyl)-propionamide] the EC50 (CHO cells expressing human CB2R, inhibition of forskolin-stimulated cAMP synthesis, compounds having agonist activity, read-out: CB2 EC50) was 0.0007 µM and the agonistic activity was “agonistic activity”.

With CC(C)(C)c1cc(NC(=O)C(C)(C)S(=O)(=O)CC2CCOCC2)no1 [N-(5-tert-Butyl-isoxazol-3-yl)-2-methyl-2-(tetrahydro-pyran-4-ylmethanesulfonyl)-propionamide] the agonistic activity was “agonistic activity”.

CC(C)C(C(=O)Nc1cc(C(C)(C)C)on1)S(=O)(=O)C(C)C (centres unmarked) [N-(5-tert-Butyl-isoxazol-3-yl)-3-methyl-2-(propane-2-sulfonyl)-butyramide] was tested, and the agonistic activity was “agonistic activity”.

In the case of CC(C)(C(=O)Nc1nc2ccccc2o1)S(=O)(=O)CC1CCOCC1 [N-Benzooxazol-2-yl-2-methyl-2-(tetrahydro-pyran-4-ylmethanesulfonyl)-propionamide], the agonistic activity is reported as “agonistic activity”.

CCCS(=O)(=O)C(C)(C)C(=O)Nc1nc2ccccc2s1 [N-Benzothiazol-2-yl-2-methyl-2-(propane-1-sulfonyl)-propionamide] was tested, and the agonistic activity was “agonistic activity”.

CC(C)S(=O)(=O)C(C)(C)C(=O)Nc1nc2ccccc2s1 [N-Benzothiazol-2-yl-2-methyl-2-(propane-2-sulfonyl)-propionamide] was tested, and the agonistic activity was “agonistic activity”.

CC(C)(C(=O)Nc1nc2ccccc2s1)S(=O)(=O)CC1CCOCC1 [N-Benzothiazol-2-yl-2-methyl-2-(tetrahydro-pyran-4-ylmethanesulfonyl)-propionamide] was tested, and the EC50 was 0.0279 µM and the agonistic activity was “agonistic activity”.

CC(C)S(=O)(=O)C(C)(C)C(=O)Nc1cc2ccccc2cn1 [N-Isoquinolin-3-yl-2-methyl-2-(propane-2-sulfonyl)-propionamide] was tested, and the agonistic activity was “agonistic activity”.

For CC(C)(C(=O)Nc1cc2ccccc2cn1)S(=O)(=O)CC1CCOCC1 [N-Isoquinolin-3-yl-2-methyl-2-(tetrahydro-pyran-4-ylmethanesulfonyl)-propionamide], the EC50 was 0.0991 µM and the agonistic activity was “agonistic activity”.

For CCCS(=O)(=O)C(C)(C)C(=O)Nc1cc(CC(C)(C)C)no1 [N-[3-(2,2-Dimethyl-propyl)-isoxazol-5-yl]-2-methyl-2-(propane-1-sulfonyl)-propionamide], the agonistic activity was “agonistic activity”.

In the case of CC(C)(C)Cc1cc(NC(=O)C(C)(C)S(=O)(=O)CC2CCOCC2)on1 [N-[3-(2,2-Dimethyl-propyl)-isoxazol-5-yl]-2-methyl-2-(tetrahydro-pyran-4-ylmethanesulfonyl)-propionamide], the EC50 is reported as 0.0743 µM and the agonistic activity is reported as “agonistic activity”.

CC(C)(C(=O)Nc1nc(-c2ccc(Cl)cc2)cs1)S(=O)(=O)C1CCCC1 [N-[4-(4-Chloro-phenyl)-thiazol-2-yl]-2-cyclopentanesulfonyl-2-methyl-propionamide] was tested, and the EC50 was 0.0015 µM and the agonistic activity was “agonistic activity”.

For CCCS(=O)(=O)C(C)(C)C(=O)Nc1nc(-c2ccc(Cl)cc2)cs1 [N-[4-(4-Chloro-phenyl)-thiazol-2-yl]-2-methyl-2-(propane-1-sulfonyl)-propionamide], the EC50 was 0.013 µM and the agonistic activity was “agonistic activity”.
